Reference: BindingDB's records for doi:10.1021/jm301022v (F. Hoffmann-La Roche, 2012)
pIC50: −log10 of the molar value.

Experiment: Antagonist activity at LPA1 in human lung fibroblasts assessed as inhibition of LPA-induced contraction after 18 hrs by 3D collagen gel contraction assay

Row | pIC50 | Structure (SMILES)
1 | 7.00 | Cc1nnn(-c2ccc(-c3ccc(C4(C(=O)O)CC4)cc3)cc2)c1NC(=O)O[C@H](C)c1ccccc1
2 | 6.82 | Cc1noc(-c2ccc(-c3ccc(CC(=O)O)cc3)cc2)c1NC(=O)O[C@H](C)c1ccccc1
3 | 6.41 | C[C@@H](OC(=O)Nc1c(-c2ccc(-c3ccc(CC(=O)O)cc3)cc2)nnn1C)c1ccccc1
4 | 6.80 | Cc1noc(-c2ccc(CSCCC(=O)O)cc2)c1NC(=O)OC(C)c1ccccc1Cl (stereo not drawn) [3-(4-(4-((1-(2-chlorophenyl)ethoxy)carbonylamino)-3-methylisoxazol-5-yl)benzylthio)propanoic acid]
5 | 6.47 | C[C@@H](OC(=O)Nc1c(-c2ccc(-c3ccc(C4(C(=O)O)CC4)cc3)cc2)nnn1C)c1cccc(C(F)(F)F)c1
6 | 6.66 | C[C@@H](OC(=O)Nc1c(-c2ccc(C3CCC(CC(=O)O)CC3)cc2)nnn1C)c1ccccc1 (stereo partly drawn)
7 | 7.70 | C[C@@H](OC(=O)Nc1c(-c2ccc(-c3ccc(C4(C(=O)O)CC4)cc3)cc2F)nnn1C)c1ccccc1
8 | 7.70 | C[C@@H](OC(=O)Nc1c(-c2ccc(-c3ccc(C4(C(=O)O)CC4)cc3)cc2)nnn1C)c1ccccc1
